Laboratory results from paper PMC4487204, “The Neisseria gonorrhoeae Obg protein is an essential ribosome-associated GTPase and a potential drug target” (BMC Microbiology, 2015).

Assays:
N-His-ObgGC (NGO1990) [1] = biological target: T1, N-His-ObgGC (NGO1990) (Neisseria gonorrhoeae, UniProt Q5F5D9); assay: mant fluorescence enhancement, plate reader; type: binding; settings: 2 uM protein, 50 mM Tris-HCl pH 8.0, 50 mM KCl, 37 C
T1 construct: gene obg

N-His-ObgGC (NGO1990) [2] = biological target: T1, N-His-ObgGC (NGO1990); assay: single-turnover hydrolysis, decrease of mant fluorescence; type: biochemical; settings: 0.3 uM mant-GTP prebound to 16 uM protein, 5 mM MgCl2, pH 8.0, 37 C; first-order rate constant

T1 sequence (Q5F5D9 whole entry): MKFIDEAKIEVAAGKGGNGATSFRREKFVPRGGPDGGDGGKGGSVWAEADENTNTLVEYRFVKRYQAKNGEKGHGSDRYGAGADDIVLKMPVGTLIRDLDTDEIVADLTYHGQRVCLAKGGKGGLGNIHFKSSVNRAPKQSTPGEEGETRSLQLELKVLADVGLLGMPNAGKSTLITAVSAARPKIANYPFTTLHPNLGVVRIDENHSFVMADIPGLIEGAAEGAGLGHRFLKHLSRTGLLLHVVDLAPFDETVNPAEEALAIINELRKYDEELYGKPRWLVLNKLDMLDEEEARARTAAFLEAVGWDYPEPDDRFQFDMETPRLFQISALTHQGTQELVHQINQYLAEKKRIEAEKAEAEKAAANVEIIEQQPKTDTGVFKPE

SMILES	fold enhancement in mant-nucleotide fluorescence (N-His-ObgGC (NGO1990) [1]; 0.3 uM mant-GDP, no Mg2+) [fold]	kh (N-His-ObgGC (NGO1990) [2]) [s⁻¹]	fold enhancement in mant-nucleotide fluorescence (N-His-ObgGC (NGO1990) [1]; 0.3 uM mant-GTP, 5 mM Mg2+) [fold]
CNc1ccccc1C(=O)O[C@H]1[C@@H](O)[C@H](n2cnc3c(=O)[nH]c(N)nc32)O[C@@H]1COP(=O)(O)OP(=O)(O)O [mant-GDP]	1.3	–	–
CNc1ccccc1C(=O)O[C@H]1[C@@H](O)[C@H](n2cnc3c(=O)[nH]c(N)nc32)O[C@@H]1COP(=O)(O)OP(=O)(O)OP(=O)(O)O [mant-GTP]	–	0.00023	1.9
